Measured values as given in US20240299275A1, “HYDROXY ACIDS FOR SCALP AND HAIR IN SULFATE FREE PERSONAL CARE COMPOSITIONS” (The Procter & Gamble Company, priority 2023, published 2024).
Several values for one entry are separate records, joined by “and”; a condition that tells them apart may be missing. Equal entries are not always repeated.

Legend:
[1] = Surfactant stability: change in lauric acid concentration of surfactant solutions after 65 C for 1 month vs baseline (HPLC/MS/MS); assay type: physicochemical; details: for Delta % lauric acid/Anionic Surfactant Conc.: 65 C 1 month; for Delta % lauric acid/Co Surfactant Conc.: 8.0% co surfactant alone, 65 C 1 month vs as made at about 25 C
Protocol: Lowering the personal care composition's pH is a key driver of hydroxy acid delivery to the hair and the skin under the hair. However, lowering pH reduces the options of suitable anionic surfactants free-of sulfates as many are susceptible to hydrolysis. Therefore, surfactant stability is analyzed by measuring the change in lauric acid concentration of surfactant solutions after exposure to high temperature (65 C) for 1 month and at range of pH vs. baseline conditions (surfactant solutions as made at ambient temperature of about 25 C). As shown in the table below, the Taurate surfactants are less susceptible to degradation at lower pH and (rows 8-10, 17-21 and 30-33) vs. other common amino acid based anionic surfactants (Sarcosinate, Alaninate, Glutamate, Glycinate, and Isethionate).
Approximately 10 mg of each sample is weighed into a vial and 10 mL of isopropanol (IPA) added and mixed. An aliquot of the diluted sample (0.1 mL) is then transferred into an autosampler vial containing stable-isotope-labeled (D23 lauric acid) internal standard (ISTD) and diluent (85/15 IPA/water, 0.9 mL). A set of lauric acid standards is prepared over an appropriate calibration range in diluent and spiked with ISTD. The standards and samples are analyzed using gradient reversed-phase high performance liquid chromatography with tandem mass spectrometry (HPLC/MS/MS). Lauric acid and the ISTD are monitored by negative ion electrospray (ESI) using “pseudo” selected reaction monitoring (i.e., a precursor-to-precursor transition with no mass loss). A standard curve is constructed by plotting the peak area ratio (peak area lauric acid/peak area ISTD) for each standard versus lauric acid concentration. The amount of lauric acid in the calibration standards and diluted samples is back-calculated using the generated regression equation. The result is reported as the mass of lauric acid per g of sample (% Lauric Acid).

forearm skin = assay: Surfactant mildness forearm study, GPSkin device, TEWL; assay type: in vivo; details: Sodium Methyl Cocoyl Taurate at 2.5% vs Sodium Lauryl Sulfate at 9.0%, pH 3.0 compositions
Protocol: • Method. A simple forearm study design approach is leveraged to screen prototypes for skin health benefits. GPSkin devices from GPOWER Inc. are used to monitor skin health over the duration of the study. Baseline GPSkin health measures are taken on day 1 followed by product treatment and rinse. This procedure is repeated over three consecutive days and two treatments are evaluated. n=7

[2] = 7.0% Cocamidopropyl Betaine + 3.0% anionic surfactant, pH 4.5
[3] = 7.0% Cocamidopropyl Betaine + 3.0% anionic surfactant, pH 5.2
[4] = 7.0% Cocamidopropyl Betaine + 3.0% anionic surfactant, pH 5.8
[5] = 7.0% Cocamidopropyl Betaine + 3.0% anionic surfactant, pH 6.5

Row | Compound | Delta % lauric acid/Anionic Surfactant Conc. [1, 2] [%] | Delta % lauric acid/Anionic Surfactant Conc. [1, 3] | Delta % lauric acid/Anionic Surfactant Conc. [1, 4] [%] | Delta % lauric acid/Anionic Surfactant Conc. [1, 5] [%] | also measured
1 | Sodium cocoyl glycinate | 12.626 | 7.971% | 1.791 | 0.619 | –
2 | Sodium cocoyl isethionate | – | 7.379% | – | – | Delta % lauric acid/Anionic Surfactant Conc. ([1]; 7.0% Cocamidopropyl Betaine + 3.0% anionic surfactant, pH 5.7): 4.277%; Delta % lauric acid/Anionic Surfactant Conc. ([1]; 7.0% Cocamidopropyl Betaine + 3.0% anionic surfactant, pH 6.4): 3.124%
3 | Cocamidopropyl Betaine | – | – | – | – | Delta % lauric acid/Co Surfactant Conc. ([1]; pH 5.2): 0.130%; Delta % lauric acid/Co Surfactant Conc. ([1]; pH 5.8): 0.216%; Delta % lauric acid/Co Surfactant Conc. ([1]; pH 6.5): 0.187% and 0.154%
4 | Sodium cocoyl alaninate | 9.905 | 5.890% | 2.058 | 1.097 | Delta % lauric acid/Anionic Surfactant Conc. ([1]; 8.0% anionic surfactant alone, pH 5.2): 5.735%; Delta % lauric acid/Anionic Surfactant Conc. ([1]; 8.0% anionic surfactant alone, pH 5.6): 2.086%; Delta % lauric acid/Anionic Surfactant Conc. ([1]; 8.0% anionic surfactant alone, pH 6.3): 0.729%
5 | Sodium methyl cocoyl taurate | – | 1.005% and 1.220% and 1.468% | 0.689 | 0.510 | Delta % lauric acid/Anionic Surfactant Conc. ([1]; 8.0% anionic surfactant alone, pH 5.1): 0.218%; Delta % lauric acid/Anionic Surfactant Conc. ([1]; 8.0% anionic surfactant alone, pH 5.8): 0.026%; Delta % lauric acid/Anionic Surfactant Conc. ([1]; 8.0% anionic surfactant alone, pH 6.5): 0.223%; mildness on forearm skin (forearm skin): milder on forearm skin than Sodium Lauryl Sulfate at 9.0%
6 | Sodium cocoyl taurate | 1.076 | 0.135% | −0.276 | 0.024 | –
7 | CCCCCCCCCCCC(=O)OC(C)CS(=O)(=O)[O-].[Na+] (centres unmarked) [Sodium Lauroyl Methyl Isethionate] | 16.097 | 5.262% | 2.867 | 3.002 | –
